Key:
TRPV1 receptors = target: T1, TRPV1 receptors (Mus musculus, UniProt Q704Y3); experiment: Mouse corneal irritation test (capsaicin-induced eye rubbing); format: in vivo; settings: compound 500 μM, 2 μl on the cornea 10 minutes before capsaicin 160 μM; eye rubs counted over 2 minutes
T1 construct: application of a very small amount of capsaicin (2 μl at a concentration of 160 μM) to the surface of the cornea of an animal; from tissue; host or cells: mouse cornea in vivo (C fibres)
Protocol: Mouse Corneal Irritation Test
The irritant nature of capsaicin can be readily assessed at the level of the cornea since this organ is one of the most innervated by C fibers. In this context, according to the preliminary experiments, the application of a very small amount of capsaicin (2 μl at a concentration of 160 μM) to the surface of the cornea of an animal results in a certain number of stereotyped behaviors associated with the irritation and that can be readily listed. Among these are: blinking of the eye, rubbing of the eye instilled with the ipsilateral forelimb, rubbing of the face with both forelimbs, scratching of the ipsilateral face with the hind limb. […] Its appearance is, moreover, also normal. […] It can be concluded from this that the duration of action of capsaicin at these doses is less than 2 minutes.
Summary of the Methodology:
The principle of the series of experiments is to determine whether the compounds of the invention can influence the behavioral response induced by a given amount of capsaicin. The capsaicin is initially diluted to 25 mM in DMSO and diluted, for its final use, in physiological saline with 10% Tween 80. It appears, based on control studies, that, under these conditions, the solvent has no effect.
In practice, the product to be tested, prepared at 25 mM in DMSO and diluted for its final use in physiological saline with 10% Tween 80, at the highest concentration of 500 μM, is administered by local application to the surface of the cornea in a volume of 2 μl, 10 minutes before the application of the capsaicin. The animal receives the ocular instillation of 2 μl of a solution of capsaicin at […] prepared as indicated above. Over the course of a period of observation of 2 minutes following the instillation, the number of times the instilled eye is rubbed by the ipsilateral forelimb is counted for each animal.
For a given group, the percentage protection is calculated as follows: P=100−((average number of scratches of the group treated with the compound/average number of scratches of the group treated with the solvent)×100). […]

TRPV1 receptor = target: T2, TRPV1 receptor (Rattus norvegicus, UniProt O35433); experiment: Test for inhibition of the current induced by capsaicin on rat DRGs (whole-cell patch-clamp); format: cell-based; settings: DRG neuron; compound at 10 nM; % inhibition of the control capsaicin response; newborn rat DRG neurons
T2 construct: The neurons of the DRG naturally express the TRPV1 receptor; endogenous in cells; host or cells: primary culture of newborn rat dorsal root ganglion neurons
Protocol: Test for Inhibition of the Current Induced by Capsaicin on Rat DRGs
Primary Culture of Rat Dorsal Root Ganglion (DRG) Cells:
The neurons of the DRG naturally express the TRPV1 receptor.
Newborn rat DRG primary cultures are prepared from 1-day-old rat pups. Briefly, after dissection, the ganglia are trypsinized and the cells are mechanically dissociated by controlled trituration. The cells are resuspended in an Eagle's basal culture medium containing 10% of fetal calf serum, 25 mM KCl, 2 mM glutamine, 100 μg/ml gentamicin and 50 ng/ml of NGF, and then deposited onto laminin-coated glass cover slips (0.25×10^6 cells per cover slip) which are then placed in 12-well Corning dishes. The cells are incubated at 37° C. in a humidified atmosphere containing 5% CO2 and 95% air. […]
The measuring chambers (volume 800 μl) containing the cell preparation are placed on the platform of an inverted microscope (Olympus IMT2) equipped with Hoffman optics (Modulation Contrast, New York), and observed at the magnification of ×400. […] The overall currents (membrane potential fixed at −60 mV) are recorded with an Axopatch 1D amplifier (Axon Instruments, Foster City, Calif.), connected to a PC controlled by Pclamp8 software (Axon Instrument). The current traces are recorded on paper and simultaneously digitized (sampling frequency 15 to […]) and acquired on the hard drive of the PC. […]

T1 sequence (Q704Y3 whole entry): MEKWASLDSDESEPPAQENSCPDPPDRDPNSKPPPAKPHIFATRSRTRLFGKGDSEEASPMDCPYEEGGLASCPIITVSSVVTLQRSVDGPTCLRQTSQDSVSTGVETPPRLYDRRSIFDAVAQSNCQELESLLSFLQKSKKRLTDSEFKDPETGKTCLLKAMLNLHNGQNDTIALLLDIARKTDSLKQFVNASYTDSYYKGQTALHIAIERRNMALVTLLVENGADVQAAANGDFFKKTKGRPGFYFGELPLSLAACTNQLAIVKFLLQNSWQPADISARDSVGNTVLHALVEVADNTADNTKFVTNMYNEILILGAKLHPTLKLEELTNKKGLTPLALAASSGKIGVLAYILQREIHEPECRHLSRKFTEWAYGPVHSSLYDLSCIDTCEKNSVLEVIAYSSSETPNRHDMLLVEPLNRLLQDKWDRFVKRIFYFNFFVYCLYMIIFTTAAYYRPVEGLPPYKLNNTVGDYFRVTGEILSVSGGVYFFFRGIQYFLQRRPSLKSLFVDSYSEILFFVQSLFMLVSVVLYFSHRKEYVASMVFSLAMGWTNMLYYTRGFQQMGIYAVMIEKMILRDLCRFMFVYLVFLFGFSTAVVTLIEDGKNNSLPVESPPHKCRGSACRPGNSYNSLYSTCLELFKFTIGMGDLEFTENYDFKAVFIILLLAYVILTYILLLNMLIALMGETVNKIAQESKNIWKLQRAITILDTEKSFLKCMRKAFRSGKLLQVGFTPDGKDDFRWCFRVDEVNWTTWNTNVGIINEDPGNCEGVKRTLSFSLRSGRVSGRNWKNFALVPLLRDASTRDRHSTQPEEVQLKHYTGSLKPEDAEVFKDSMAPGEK
T2 sequence (O35433 whole entry): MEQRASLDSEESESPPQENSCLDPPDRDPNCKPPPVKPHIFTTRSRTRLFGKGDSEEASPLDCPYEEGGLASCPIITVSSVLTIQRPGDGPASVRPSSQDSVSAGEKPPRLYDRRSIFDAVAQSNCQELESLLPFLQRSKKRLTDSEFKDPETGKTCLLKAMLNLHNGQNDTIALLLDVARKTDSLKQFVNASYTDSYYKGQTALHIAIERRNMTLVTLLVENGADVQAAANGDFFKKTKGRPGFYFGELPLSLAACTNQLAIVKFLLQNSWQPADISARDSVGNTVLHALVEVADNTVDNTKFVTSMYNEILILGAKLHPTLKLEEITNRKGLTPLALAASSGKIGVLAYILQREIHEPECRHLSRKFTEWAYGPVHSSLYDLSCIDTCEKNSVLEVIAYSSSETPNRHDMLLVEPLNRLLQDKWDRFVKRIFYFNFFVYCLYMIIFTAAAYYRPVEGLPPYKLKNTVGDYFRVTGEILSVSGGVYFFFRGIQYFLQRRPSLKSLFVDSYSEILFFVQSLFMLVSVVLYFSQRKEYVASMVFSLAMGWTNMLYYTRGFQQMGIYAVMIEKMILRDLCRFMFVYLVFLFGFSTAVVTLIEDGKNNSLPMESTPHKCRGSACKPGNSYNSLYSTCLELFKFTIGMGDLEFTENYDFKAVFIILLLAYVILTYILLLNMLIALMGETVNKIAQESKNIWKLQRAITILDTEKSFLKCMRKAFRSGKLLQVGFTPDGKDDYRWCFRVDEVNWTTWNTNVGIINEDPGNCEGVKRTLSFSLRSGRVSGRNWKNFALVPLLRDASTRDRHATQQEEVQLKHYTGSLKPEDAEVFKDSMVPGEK

SMILES: O=C(Nc1ccc2c(c1)nc1n2CCC1)c1cc2cc(C(F)(F)F)cnc2n1Cc1ccccc1 [Compound 8, N-(2,3-dihydro-1H-pyrrolo[1,2-a]benzimidazol-6-yl)-1-benzyl-5-trifluoromethyl-1H-pyrrolo[2,3-b]pyridine-2-carboxamide]
- % P 500 μM (percentage protection) (TRPV1 receptors): 71%

SMILES: O=C(Nc1ccc2nc3n(c2c1)CCOC3)c1cc2cc(F)ccc2n1Cc1cccc(F)c1 [Compound 15, N-(3,4-dihydro-1H-oxazino[1,4][4,3-a]benzimidazol-7-yl)-5-fluoro-1-(3-fluorobenzyl)-1H-indole-2-carboxamide]
- % P 500 μM (percentage protection) (TRPV1 receptors): 56%

SMILES: O=C(Nc1ccc2c(c1)nc1n2CCC1)c1cc2cc(F)ccc2n1Cc1ccncc1 [Compound 5, N-(2,3-dihydro-1H-pyrrolo[1,2-a]benzimidazol-6-yl)-5-fluoro-1-[(pyridin-4-yl)methyl]-1H-indole-2-carboxamide]
- inhibition at 0.01 µM (TRPV1 receptor): 53%

SMILES: O=C(Nc1ccc2nc3ncccn3c2c1)c1cc2cc(F)ccc2n1Cc1cccc(F)c1
- melting point: 295 to 298 °C

SMILES: CC1CN=C2Nc3ccc(NC(=O)c4cc5cc(F)ccc5n4Cc4cccc(F)c4)cc3N21 (stereo not drawn) [Compound 26, N-(2,3-dihydro-3-methylimidazo[1,2-a]benzimidazol-6-yl)-5-fluoro-1-(3-fluorobenzyl)-1H-indole-2-carboxamide]
- % P 500 μM (percentage protection) (TRPV1 receptors): 46%

SMILES: O=C(Nc1ccc2c(c1)nc1n2CCCC1)c1cc2cc(F)ccc2n1Cc1ccncc1 [Compound 1, N-(1,2,3,4-tetrahydropyrido[1,2-a]benzimidazol-7-yl)-5-fluoro-1-[(pyridin-4-yl)methyl]-1H-indole-2-carboxamide]
- inhibition at 0.01 µM (TRPV1 receptor): 37%
